Drawing on patent publication US10829478B2, “5-[3-[piperazin-1-yl]-3-oxo-propyl]-imidazolidine-2,4-dione derivatives as ADAMTS 4 and 5 inhibitors for treating e.g. osteoarthritis” (Galapagos NV, priority 2016, dated 2020), this text covers IC50 for 25 molecules.

One assay addresses human ADAMTS-5 (Homo sapiens (Human), UniProt Q9UNA0). Put plainly: hADAMTS-5 TBIS-1 cleavage assay, Protocol 3. In kind it is biochemical. Particulars: 90 min at 37° C., read-out: hADAMTS-5 potency IC50.
In the next assay the target is human ADAMTS6 (Homo sapiens (Human), UniProt Q9UKP5). Put plainly: hADAMTS-6 fluorescent based protease assay (520 MMP FRET substrate XII). In kind it is biochemical. Conditions: 37° C. for 2 h; read-out: hADAMTS-6 potency IC50. As for the experimental part:
The IC50 value for test compounds can be determined in a fluorescent based protease assay.
The substrate contains sequence Arg-Pro-Lys-Pro-Tyr-Ala-Nva-Trp-Met-Lys (SEQ ID NO: 7) with attached a fluorescent probe and a quencher. Without ADAMTS6, the emission of the probe is quenched. If the substrate is cleaved by ADAMTS6, the emission of the probe is not quenched anymore. Inhibition of ADAMTS6 activity, will result in a decrease of the signal.
To perform the assay, 4 μL of a dilution series of compound in water, starting from 20 μM highest concentration, ⅕ dilution, is added to the wells. 2 ng ADAMTS6 enzyme is diluted in 25 mM Tris pH8.0, 0.05% CHAPS, 2.5 mM CaCl2 in a total volume of 26 μL (final concentration 0.73 nM). The reaction is started by addition of 10 μL of 1 μM 520 MMP FRET Substrate XII (final concentration, diluted in same buffer as described above) and the mixture is incubated at 37° C. for 2 h. […] After this incubation, cleavage of the substrate is measured using the Envision (Perkin Elmer, exc485/em530).

The target in another assay is human TACE (Homo sapiens (Human), UniProt P78536). Put plainly: biochemical.
human TACE, sequence (P78536 215-671): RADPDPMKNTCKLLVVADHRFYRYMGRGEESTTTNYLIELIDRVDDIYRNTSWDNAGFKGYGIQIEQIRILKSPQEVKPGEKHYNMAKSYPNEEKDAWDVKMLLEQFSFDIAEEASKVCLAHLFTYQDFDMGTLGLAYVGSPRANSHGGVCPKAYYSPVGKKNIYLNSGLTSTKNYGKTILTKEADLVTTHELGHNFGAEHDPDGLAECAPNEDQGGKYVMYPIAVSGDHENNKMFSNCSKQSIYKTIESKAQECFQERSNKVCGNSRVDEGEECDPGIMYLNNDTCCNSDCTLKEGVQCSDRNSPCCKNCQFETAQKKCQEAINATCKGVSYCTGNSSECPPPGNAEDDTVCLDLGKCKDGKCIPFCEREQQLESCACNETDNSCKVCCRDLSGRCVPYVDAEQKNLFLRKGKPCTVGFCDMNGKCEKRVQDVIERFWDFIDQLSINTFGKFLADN

human ADAMTS-5, sequence (Q9UNA0 262-930): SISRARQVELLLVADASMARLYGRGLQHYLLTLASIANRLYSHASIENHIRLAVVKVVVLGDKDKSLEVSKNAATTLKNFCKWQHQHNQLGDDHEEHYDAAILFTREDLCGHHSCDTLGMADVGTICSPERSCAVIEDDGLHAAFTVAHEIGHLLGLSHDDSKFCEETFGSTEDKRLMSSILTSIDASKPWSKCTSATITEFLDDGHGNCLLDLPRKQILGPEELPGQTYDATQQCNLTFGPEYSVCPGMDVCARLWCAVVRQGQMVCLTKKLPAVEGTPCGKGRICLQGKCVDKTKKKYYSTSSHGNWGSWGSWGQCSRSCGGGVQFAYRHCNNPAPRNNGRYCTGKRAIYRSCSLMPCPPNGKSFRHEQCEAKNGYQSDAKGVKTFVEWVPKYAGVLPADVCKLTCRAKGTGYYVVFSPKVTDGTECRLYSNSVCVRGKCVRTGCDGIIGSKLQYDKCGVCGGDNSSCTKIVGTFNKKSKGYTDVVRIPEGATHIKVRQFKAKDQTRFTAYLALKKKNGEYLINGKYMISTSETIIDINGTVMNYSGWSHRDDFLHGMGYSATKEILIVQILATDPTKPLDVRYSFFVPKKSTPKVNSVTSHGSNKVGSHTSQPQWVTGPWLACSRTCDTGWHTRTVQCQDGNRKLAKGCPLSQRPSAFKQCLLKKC
human ADAMTS6, sequence (Q9UKP5 other isoform, or with tags, fused parts or gaps): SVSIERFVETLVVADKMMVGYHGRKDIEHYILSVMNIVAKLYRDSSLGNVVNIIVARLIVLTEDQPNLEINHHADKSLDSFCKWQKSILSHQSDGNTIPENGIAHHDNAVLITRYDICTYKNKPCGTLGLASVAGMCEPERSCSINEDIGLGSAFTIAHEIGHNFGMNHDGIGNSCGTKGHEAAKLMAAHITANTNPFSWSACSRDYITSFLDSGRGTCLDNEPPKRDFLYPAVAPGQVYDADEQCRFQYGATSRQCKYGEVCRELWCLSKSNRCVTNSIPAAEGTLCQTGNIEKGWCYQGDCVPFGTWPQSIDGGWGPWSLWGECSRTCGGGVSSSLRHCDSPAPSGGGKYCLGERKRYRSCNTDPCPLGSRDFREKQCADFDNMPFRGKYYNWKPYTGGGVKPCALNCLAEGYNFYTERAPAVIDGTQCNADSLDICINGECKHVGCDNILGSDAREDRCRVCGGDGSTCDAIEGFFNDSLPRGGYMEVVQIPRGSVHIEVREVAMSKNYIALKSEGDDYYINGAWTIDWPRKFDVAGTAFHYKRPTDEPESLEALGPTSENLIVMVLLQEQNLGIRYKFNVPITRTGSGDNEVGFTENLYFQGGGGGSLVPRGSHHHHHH
Procedure for human ADAMTS-5: The reaction is initiated by adding to the assay plate TBIS-1 (10 μL, 4.5 μM, Anaspec) in the same buffer.
Finally, the fluorescence is read on the Envision (Perkin Elmer) after an incubation of 90 min at 37° C. (Excitation 485 nm, emission 530).
Procedure for human TACE: Finally, the fluorescence is read on the Envision (Perkin Elmer) after an incubation of 75 min at room temperature (Excitation 485 nm, Emission 530).

With `COc1cc(N2CCN(C(=O)[C@@H](C)C[C@@]3(C)NC(=O)NC3=O)C[C@@H]2C)c(C)cc1Cl` (mixture of isomers) [Cpd 45, 5-[3-[(3S)-4-(4-chloro-5-methoxy-2-methyl-phenyl)-3-methyl-piperazin-1-yl]-2-methyl-3-oxo-propyl]-5-methyl-imidazolidine-2,4-dione], the IC50 at human ADAMTS-5 and on human ADAMTS6 was above 100 nM throughout.
Turning to `COC[C@]1(C[C@H](C)C(=O)N2CCN(c3cc(C)c(Cl)c(OC)c3)[C@@H](C)C2)NC(=O)NC1=O` (mixture of isomers) [Cpd 126, 5-[3-[(3S)-4-(4-chloro-3-methoxy-5-methyl-phenyl)-3-methyl-piperazin-1-yl]-2-methyl-3-oxo-propyl]-5-(methoxymethyl)imidazolidine-2,4-dione], the values for the IC50 at human ADAMTS-5 and at human ADAMTS6 were 25 to 50 nM and 0.001 to 25 nM, respectively.
For `COc1cc(N2CCN(C(=O)[C@@H](C)C[C@@]3(C)NC(=O)NC3=O)C[C@@H]2C)cc(OC)c1Cl` (stereo in doubt) [Cpd 44, 5-[3-[(3S)-4-(4-chloro-3,5-dimethoxy-phenyl)-3-methyl-piperazin-1-yl]-2-methyl-3-oxo-propyl]-5-methyl-imidazolidine-2,4-dione], the IC50 at human ADAMTS-5 fell in the range of 50 to 100 nM; on human ADAMTS6 it was 0.001 to 25 nM.
For `COc1cc(N2CCN(C(=O)[C@H](C)C[C@@]3(C4CC4)NC(=O)NC3=O)C[C@@H]2C)cc(F)c1F` (stereo in doubt) [Cpd 134, 5-cyclopropyl-5-[3-[(3S)-4-(3,4-difluoro-5-methoxy-phenyl)-3-methyl-piperazin-1-yl]-2-methyl-3-oxo-propyl]imidazolidine-2,4-dione], the IC50 is above 100 nM at human ADAMTS-5 and 50 to 100 nM at human ADAMTS6.
For the molecule `COc1ccc(C)c(N2CCN(C(=O)CCC3(C)NC(=O)NC3=O)CC2)c1` (stereo not shown) [Cpd 32, 5-[3-[4-(5-methoxy-2-methyl-phenyl)piperazin-1-yl]-3-oxo-propyl]-5-methyl-imidazolidine-2,4-dione], the IC50 on human ADAMTS-5 and on human ADAMTS6 was above 100 nM throughout.
With `COc1cccc(N2CCN(C(=O)CCC3(C)NC(=O)NC3=O)CC2)c1C` (stereo not shown) [Cpd 33, 5-[3-[4-(3-methoxy-2-methyl-phenyl)piperazin-1-yl]-3-oxo-propyl]-5-methyl-imidazolidine-2,4-dione], the IC50 on human ADAMTS-5 and at human ADAMTS6 was above 100 nM each time.
Consider `COc1ccc(C)c(N2CCN(C(=O)CCC3(C)NC(=O)NC3=O)C[C@@H]2C)c1` (stereo partly drawn) [Cpd 35, 5-[3-[(3S)-4-(5-methoxy-2-methyl-phenyl)-3-methyl-piperazin-1-yl]-3-oxo-propyl]-5-methyl-imidazolidine-2,4-dione], for which the IC50 on human ADAMTS-5 and at human ADAMTS6 was above 100 nM each time.
For the molecule `COc1cc(N2CCN(C(=O)CC[C@@]3(C)NC(=O)NC3=O)C[C@@H]2C)c(C)cc1F` [Cpd 66, (5R)-5-[3-[(3S)-4-(4-fluoro-5-methoxy-2-methyl-phenyl)-3-methyl-piperazin-1-yl]-3-oxo-propyl]-5-methyl-imidazolidine-2,4-dione], the IC50 is above 100 nM at human ADAMTS-5, 50 to 100 nM at human ADAMTS6 and above 100 nM at human TACE.
For the molecule `COc1c(Cl)cccc1N1CCN(C(=O)CC[C@@]2(C)NC(=O)NC2=O)C[C@@H]1C` [Cpd 69, (5R)-5-[3-[(3 S)-4-(3-chloro-2-methoxy-phenyl)-3-methyl-piperazin-1-yl]-3-oxo-propyl]-5-methyl-imidazolidine-2,4-dione], the IC50 on human ADAMTS-5, at human ADAMTS6 and on human TACE was above 100 nM each time.
Turning to `CCc1cccc(N2CCN(C(=O)CC[C@@]3(C)NC(=O)NC3=O)CC2)c1` [Cpd 70, (5R)-5-[3-[4-(3-ethylphenyl)piperazin-1-yl]-3-oxo-propyl]-5-methyl-imidazolidine-2,4-dione], the IC50 at human ADAMTS-5, at human ADAMTS6 and on human TACE was above 100 nM each time.
For `COc1cc(Cl)ccc1N1CCN(C(=O)CC[C@@]2(C)NC(=O)NC2=O)CC1` [Cpd 73, (5R)-5-[3-[4-(4-chloro-2-methoxy-phenyl)piperazin-1-yl]-3-oxo-propyl]-5-methyl-imidazolidine-2,4-dione], the IC50 at human ADAMTS-5, at human ADAMTS6 and against human TACE was above 100 nM throughout.
Take `COc1cc(Cl)ccc1N1CCN(C(=O)CC[C@@]2(C)NC(=O)NC2=O)C[C@@H]1C` [Cpd 76, (5R)-5-[3-[(3 S)-4-(4-chloro-2-methoxy-phenyl)-3-methyl-piperazin-1-yl]-3-oxo-propyl]-5-methyl-imidazolidine-2,4-dione]: the IC50 at human ADAMTS-5, at human ADAMTS6 and at human TACE was above 100 nM each time.
Consider `CCc1cc(N2CCN(C(=O)CCC3(c4cccc(C)n4)NC(=O)NC3=O)C[C@@H]2C)ccc1Cl` (stereo partly shown) [Cpd 100, 5-[3-[(3 S)-4-(4-chloro-3-ethyl-phenyl)-3-methyl-piperazin-1-yl]-3-oxo-propyl]-5-(6-methyl-2-pyridyl)imidazolidine-2,4-dione], for which, at human ADAMTS6, the IC50 is 0.001 to 25 nM.
For the molecule `Cc1cccc(C2(CCC(=O)N3CCN(c4ccc(Cl)c(OC(F)(F)F)c4)[C@@H](C)C3)NC(=O)NC2=O)n1` (stereo partly shown) [Cpd 101, 5-[3-[(3 S)-4-[4-chloro-3-(trifluoromethoxy)phenyl]-3-methyl-piperazin-1-yl]-3-oxo-propyl]-5-(6-methyl-2-pyridyl)imidazolidine-2,4-dione], the IC50 at human ADAMTS6 was in the range of 0.001 to 25 nM.
Still for that read-out and setting: under `CCc1cc(N2CCN(C(=O)CC[C@@]3(C)NC(=O)NC3=O)CC2)c(OC)cc1Cl` [Cpd 102, (5R)-5-[3-[4-(4-chloro-5-ethyl-2-methoxy-phenyl)piperazin-1-yl]-3-oxo-propyl]-5-methyl-imidazolidine-2,4-dione] stands above 100 nM.
In the case of `CCc1cc(N2CCN(C(=O)CC[C@@]3(C)NC(=O)NC3=O)C[C@@H]2C)c(OC)cc1Cl` [Cpd 103, (5R)-5-[3-[(3 S)-4-(4-chloro-5-ethyl-2-methoxy-phenyl)-3-methyl-piperazin-1-yl]-3-oxo-propyl]-5-methyl-imidazolidine-2,4-dione], on human ADAMTS6, the IC50 is above 100 nM.
Still for that read-out and setting: under `COc1cc(N2CCN(C(=O)CC[C@@]3(C)NC(=O)NC3=O)C[C@@H]2C)c(OC)cc1Cl` [Cpd 104, (5R)-5-[3-[(3 S)-4-(4-chloro-2,5-dimethoxy-phenyl)-3-methyl-piperazin-1-yl]-3-oxo-propyl]-5-methyl-imidazolidine-2,4-dione] stands 0.001 to 25 nM; under `COc1ccc(OC(F)(F)F)c(N2CCN(C(=O)CC[C@@]3(C)NC(=O)NC3=O)C[C@@H]2C)c1` [Cpd 108, (5R)-5-[3-[(3S)-4-[5-methoxy-2-(trifluoromethoxy)phenyl]-3-methyl-piperazin-1-yl]-3-oxo-propyl]-5-methyl-imidazolidine-2,4-dione], above 100 nM.
As to `COc1cc(N2CCN(C(=O)CC[C@@]3(C)NC(=O)NC3=O)C[C@@H]2C)cc(OC)c1Cl` [Cpd 110, (5R)-5-[3-[(3 S)-4-(4-chloro-3,5-dimethoxy-phenyl)-3-methyl-piperazin-1-yl]-3-oxo-propyl]-5-methyl-imidazolidine-2,4-dione], the IC50 on human ADAMTS-5 is above 100 nM; on human ADAMTS6, 0.001 to 25 nM.
Regarding `CCOc1cc(N2CCN(C(=O)CC[C@@]3(C)NC(=O)NC3=O)C[C@@H]2C)ccc1Cl` [Cpd 111, (5R)-5-[3-[(3 S)-4-(4-chloro-3-ethoxy-phenyl)-3-methyl-piperazin-1-yl]-3-oxo-propyl]-5-methyl-imidazolidine-2,4-dione], the half-maximal inhibitory concentration (IC50) on human ADAMTS-5 was above 100 nM; on human ADAMTS6, 0.001 to 25 nM.
On to `COc1cc(F)c(F)cc1N1CCN(C(=O)CC[C@@]2(C)NC(=O)NC2=O)C[C@@H]1C` [Cpd 113, (5R)-5-[3-[(3 S)-4-(4,5-difluoro-2-methoxy-phenyl)-3-methyl-piperazin-1-yl]-3-oxo-propyl]-5-methyl-imidazolidine-2,4-dione], for which the IC50 at human ADAMTS-5 and at human ADAMTS6 was above 100 nM in each case.
For the molecule `COc1cc(N2CCN(C(=O)CC[C@H]3NC(=O)NC3=O)C[C@H]2C)cc(F)c1F` [Cpd 127, (5R)-5-[3-[(3R)-4-(3,4-difluoro-5-methoxy-phenyl)-3-methyl-piperazin-1-yl]-3-oxo-propyl]imidazolidine-2,4-dione], the IC50 at human ADAMTS-5 and on human ADAMTS6 was above 100 nM each time.
Turning to `COc1ccc(C)c(N2CCN(C(=O)CC[C@H]3NC(=O)NC3=O)CC2)c1` [Cpd 136, (5R)-5-[3-[4-(5-methoxy-2-methyl-phenyl)piperazin-1-yl]-3-oxo-propyl]imidazolidine-2,4-dione], the IC50 at human ADAMTS-5 and on human ADAMTS6 was above 100 nM throughout.
Consider `COc1cccc(N2CCN(C(=O)CC[C@H]3NC(=O)NC3=O)CC2)c1C` [Cpd 137, (5R)-5-[3-[4-(3-methoxy-2-methyl-phenyl)piperazin-1-yl]-3-oxo-propyl]imidazolidine-2,4-dione], for which the IC50 at human ADAMTS-5 and on human ADAMTS6 was above 100 nM throughout.
Take `COc1ccc(C)c(N2CCN(C(=O)CC[C@H]3NC(=O)NC3=O)C[C@@H]2C)c1` [Cpd 140, (5R)-5-[3-[(3 S)-4-(5-methoxy-2-methyl-phenyl)-3-methyl-piperazin-1-yl]-3-oxo-propyl]imidazolidine-2,4-dione]: the IC50 at human ADAMTS-5 and on human ADAMTS6 was above 100 nM throughout.
